# Source: ChEMBL document CHEMBL1201862, “PubChem BioAssay data set” (2004)
# Calls of active or inactive are those of the source.
# Key:
# [1] = target: T1, Sentrin-specific protease 6 (Homo sapiens, UniProt Q9GZR1); format: functional;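 also: Luminescence-based dose-response confirmatory assay of SENP6 inhibition, following up an ultra-high-throughput screen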
# T1 sequence (Q9GZR1 whole entry): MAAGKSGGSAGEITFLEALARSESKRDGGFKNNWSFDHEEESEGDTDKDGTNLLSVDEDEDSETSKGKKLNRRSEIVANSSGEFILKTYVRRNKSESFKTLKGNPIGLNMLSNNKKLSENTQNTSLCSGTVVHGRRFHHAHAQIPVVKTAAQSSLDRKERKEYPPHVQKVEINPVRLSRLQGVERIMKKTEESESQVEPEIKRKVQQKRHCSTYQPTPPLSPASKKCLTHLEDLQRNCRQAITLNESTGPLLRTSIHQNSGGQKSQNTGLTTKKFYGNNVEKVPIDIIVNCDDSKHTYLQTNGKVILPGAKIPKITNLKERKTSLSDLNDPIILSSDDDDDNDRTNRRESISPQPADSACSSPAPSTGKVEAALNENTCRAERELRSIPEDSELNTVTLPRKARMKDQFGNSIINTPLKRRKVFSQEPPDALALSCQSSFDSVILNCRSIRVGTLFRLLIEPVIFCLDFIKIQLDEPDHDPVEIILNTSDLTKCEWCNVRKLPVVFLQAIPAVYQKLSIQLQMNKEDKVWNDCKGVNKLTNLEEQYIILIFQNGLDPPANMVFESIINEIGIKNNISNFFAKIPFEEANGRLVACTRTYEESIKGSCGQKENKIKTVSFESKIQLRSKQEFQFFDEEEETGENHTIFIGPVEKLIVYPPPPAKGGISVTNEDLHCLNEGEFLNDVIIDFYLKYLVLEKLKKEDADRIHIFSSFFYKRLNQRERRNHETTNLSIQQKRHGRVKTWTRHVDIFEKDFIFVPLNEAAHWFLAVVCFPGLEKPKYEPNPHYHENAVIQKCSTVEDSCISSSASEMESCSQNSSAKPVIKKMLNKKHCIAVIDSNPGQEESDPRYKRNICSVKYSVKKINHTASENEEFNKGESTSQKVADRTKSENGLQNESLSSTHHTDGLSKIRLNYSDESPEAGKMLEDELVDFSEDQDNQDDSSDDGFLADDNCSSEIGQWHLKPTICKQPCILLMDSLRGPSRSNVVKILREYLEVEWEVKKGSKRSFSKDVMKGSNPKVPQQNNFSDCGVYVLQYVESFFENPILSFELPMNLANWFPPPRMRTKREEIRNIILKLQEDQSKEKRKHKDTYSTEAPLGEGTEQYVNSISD
# [2] = target: T2, Caspase-3 (Homo sapiens, UniProt P42574); format: functional;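 also: Dose-response selectivity test against caspase-3 for candidate inhibitors of sentrin-specific proteases (SENPs)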
# T2 sequence (P42574 whole entry): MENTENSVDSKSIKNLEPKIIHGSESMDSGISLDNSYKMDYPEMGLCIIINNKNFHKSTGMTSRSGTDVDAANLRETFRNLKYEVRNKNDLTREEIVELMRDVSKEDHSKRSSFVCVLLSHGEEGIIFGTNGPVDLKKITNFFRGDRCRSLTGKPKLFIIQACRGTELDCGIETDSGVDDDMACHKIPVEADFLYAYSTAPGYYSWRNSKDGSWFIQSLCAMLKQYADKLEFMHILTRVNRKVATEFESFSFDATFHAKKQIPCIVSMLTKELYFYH
# [3] = target: SWI/SNF-related matrix-associated actin-dependent regulator of chromatin subfamily A member 2 (Homo sapiens, UniProt P51531); experiment: Luminescence-based cell-based high throughput dose response assay to identify activators of the function of SWI/SNF related, matrix associated, actin dependent regulator of chromatin, subfamily a, member 2 (SMARCA2, BRM).; format: functional
# SWI/SNF-related matrix-associated actin-dependent regulator of chromatin subfamily A member 2, sequence (P51531 whole entry): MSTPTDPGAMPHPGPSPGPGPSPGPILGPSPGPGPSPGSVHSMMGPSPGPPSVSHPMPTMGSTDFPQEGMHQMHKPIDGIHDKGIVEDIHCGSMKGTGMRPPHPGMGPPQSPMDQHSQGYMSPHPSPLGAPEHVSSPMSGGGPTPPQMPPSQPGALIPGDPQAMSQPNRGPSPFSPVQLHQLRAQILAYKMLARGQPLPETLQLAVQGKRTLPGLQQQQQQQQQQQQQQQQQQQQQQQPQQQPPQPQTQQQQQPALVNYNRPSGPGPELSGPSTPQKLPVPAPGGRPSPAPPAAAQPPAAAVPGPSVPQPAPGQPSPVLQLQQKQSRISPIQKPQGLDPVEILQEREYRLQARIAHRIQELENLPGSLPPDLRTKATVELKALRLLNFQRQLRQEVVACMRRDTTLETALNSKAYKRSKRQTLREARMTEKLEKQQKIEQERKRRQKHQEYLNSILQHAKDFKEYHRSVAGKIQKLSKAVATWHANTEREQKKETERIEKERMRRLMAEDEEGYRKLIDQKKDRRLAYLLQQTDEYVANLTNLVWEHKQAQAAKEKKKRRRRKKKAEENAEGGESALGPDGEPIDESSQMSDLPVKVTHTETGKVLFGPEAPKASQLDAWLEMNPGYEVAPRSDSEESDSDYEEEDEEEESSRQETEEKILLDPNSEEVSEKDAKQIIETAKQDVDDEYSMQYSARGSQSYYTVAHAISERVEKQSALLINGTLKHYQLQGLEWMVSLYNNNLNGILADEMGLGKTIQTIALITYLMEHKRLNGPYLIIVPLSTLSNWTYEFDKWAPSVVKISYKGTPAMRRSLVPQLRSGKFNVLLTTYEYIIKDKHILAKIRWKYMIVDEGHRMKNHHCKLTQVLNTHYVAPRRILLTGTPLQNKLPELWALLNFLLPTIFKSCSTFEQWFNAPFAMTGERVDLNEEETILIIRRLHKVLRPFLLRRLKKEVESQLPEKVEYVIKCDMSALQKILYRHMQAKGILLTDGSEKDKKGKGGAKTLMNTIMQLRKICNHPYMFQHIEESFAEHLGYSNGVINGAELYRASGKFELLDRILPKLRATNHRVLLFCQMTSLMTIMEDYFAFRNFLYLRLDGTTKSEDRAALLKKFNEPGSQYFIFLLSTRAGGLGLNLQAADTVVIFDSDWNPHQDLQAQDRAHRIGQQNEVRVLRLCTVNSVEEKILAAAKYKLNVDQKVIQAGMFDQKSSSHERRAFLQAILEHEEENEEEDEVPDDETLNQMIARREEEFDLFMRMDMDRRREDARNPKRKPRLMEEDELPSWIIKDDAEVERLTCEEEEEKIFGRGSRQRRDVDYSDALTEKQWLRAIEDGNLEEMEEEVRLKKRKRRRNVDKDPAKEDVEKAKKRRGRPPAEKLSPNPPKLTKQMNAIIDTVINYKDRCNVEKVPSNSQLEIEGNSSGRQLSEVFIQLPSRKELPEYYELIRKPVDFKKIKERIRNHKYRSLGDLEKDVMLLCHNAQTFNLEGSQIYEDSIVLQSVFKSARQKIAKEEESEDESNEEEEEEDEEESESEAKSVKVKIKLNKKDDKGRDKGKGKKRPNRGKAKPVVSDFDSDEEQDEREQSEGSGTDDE
# [4] = target: T3, Sentrin-specific protease 7 (Homo sapiens, UniProt Q9BQF6); format: functional;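 also: Luminescence-based dose-response confirmation of ultra-high-throughput screening hits, measuring inhibition of SENP7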
# T3 sequence (Q9BQF6 whole entry): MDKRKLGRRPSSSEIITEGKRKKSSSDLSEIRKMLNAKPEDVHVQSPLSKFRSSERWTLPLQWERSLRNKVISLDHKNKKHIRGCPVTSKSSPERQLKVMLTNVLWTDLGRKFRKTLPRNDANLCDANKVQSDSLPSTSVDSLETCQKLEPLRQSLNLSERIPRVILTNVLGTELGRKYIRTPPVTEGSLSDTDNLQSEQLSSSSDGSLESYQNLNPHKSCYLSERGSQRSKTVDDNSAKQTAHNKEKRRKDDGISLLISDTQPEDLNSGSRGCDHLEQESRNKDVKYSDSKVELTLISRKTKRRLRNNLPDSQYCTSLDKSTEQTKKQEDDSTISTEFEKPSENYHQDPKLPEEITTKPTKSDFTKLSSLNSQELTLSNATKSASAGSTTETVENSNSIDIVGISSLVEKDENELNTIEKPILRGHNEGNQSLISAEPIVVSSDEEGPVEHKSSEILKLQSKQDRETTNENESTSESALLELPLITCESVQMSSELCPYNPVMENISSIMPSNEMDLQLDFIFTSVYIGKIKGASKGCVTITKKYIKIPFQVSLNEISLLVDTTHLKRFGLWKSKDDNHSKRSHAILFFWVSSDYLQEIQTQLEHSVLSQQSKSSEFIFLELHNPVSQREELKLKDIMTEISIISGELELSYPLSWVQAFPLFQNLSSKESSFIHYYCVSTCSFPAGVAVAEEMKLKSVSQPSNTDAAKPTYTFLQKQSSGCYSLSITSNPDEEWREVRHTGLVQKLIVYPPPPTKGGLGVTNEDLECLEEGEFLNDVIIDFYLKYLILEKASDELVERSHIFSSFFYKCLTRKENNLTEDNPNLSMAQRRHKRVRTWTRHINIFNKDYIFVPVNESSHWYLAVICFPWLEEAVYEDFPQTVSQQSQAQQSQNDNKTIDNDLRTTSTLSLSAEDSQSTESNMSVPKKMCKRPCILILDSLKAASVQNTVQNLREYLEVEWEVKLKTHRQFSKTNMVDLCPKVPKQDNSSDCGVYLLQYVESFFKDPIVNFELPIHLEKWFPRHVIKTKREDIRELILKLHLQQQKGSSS
# [5] = target: T4, Sentrin-specific protease 8 (Homo sapiens, UniProt Q96LD8); format: functional;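 also: luminescence read-out of SENP8 inhibition, dose-response confirmation following an ultra-high-throughput screen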
# T4 sequence (Q96LD8 whole entry): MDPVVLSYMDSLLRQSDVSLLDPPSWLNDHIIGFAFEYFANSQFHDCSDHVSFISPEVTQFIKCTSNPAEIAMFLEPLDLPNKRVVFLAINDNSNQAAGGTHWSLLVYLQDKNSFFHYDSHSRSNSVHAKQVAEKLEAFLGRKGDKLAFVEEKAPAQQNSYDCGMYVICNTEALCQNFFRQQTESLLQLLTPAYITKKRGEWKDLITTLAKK
# [6] = Counterscreen for activators of the function of SWI/SNF related, matrix associated, actin dependent regulator of chromatin, subfamily a, member 2 (SMARCA2, BRM): Luminescence-based cell-based high throughput dose response assay to identify non-selective compounds using the VP16 reporter assay.; format: functional
# [7] = system: Vero; experiment: Vero cell toxicity, dose response, cytotoxicity control, plate reader, cherry-pick samples (AID 687020); format: functional, cell-based; conditions: Chlorocebus sabaeus
# [8] = target: T5, Streptokinase A (Streptococcus pyogenes serotype M1, UniProt P10520); experiment: S. pyogenes streptokinase expression inhibitors, potency, dose response, plasminogen activation absorbance, OD405 (AID 1914); format: functional, Streptococcus pyogenes M1 GAS;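 also: secreted streptokinase activity via plasminogen activation per viability signal from cell pellet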
# T5 sequence (P10520 whole entry): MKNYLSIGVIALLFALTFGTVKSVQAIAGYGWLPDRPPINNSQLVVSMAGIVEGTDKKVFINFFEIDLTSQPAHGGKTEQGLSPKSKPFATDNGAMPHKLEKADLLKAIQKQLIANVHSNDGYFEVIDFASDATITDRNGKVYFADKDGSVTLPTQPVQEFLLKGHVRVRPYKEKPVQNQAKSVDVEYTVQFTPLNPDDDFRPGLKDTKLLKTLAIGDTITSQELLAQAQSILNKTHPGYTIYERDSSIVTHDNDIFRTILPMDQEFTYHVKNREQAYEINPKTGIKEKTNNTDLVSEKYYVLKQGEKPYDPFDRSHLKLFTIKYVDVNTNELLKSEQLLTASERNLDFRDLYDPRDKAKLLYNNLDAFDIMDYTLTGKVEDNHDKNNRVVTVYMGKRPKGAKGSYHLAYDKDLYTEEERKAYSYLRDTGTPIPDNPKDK
# [9] = system: Streptococcus sp. 'group A'; experiment: growth inhibition of control SK(-) GAS strain, dose response, counter-screen for streptokinase expression inhibitor project, luminescence, kanamycin, BacTiterGlo, confirmation (AID 1900); format: functional, organism-based
# [10] = target: T6, Trace amine-associated receptor 1 (Homo sapiens, UniProt Q96RJ0); experiment: Counterscreen for agonists of the human trace amine associated receptor 1 (hTAAR1): Fluorescence-based cell-based high throughput dose response assay to identify hTAAR1 agonist that also desensitize TAAR1 receptor response.; format: functional
# T6 sequence (Q96RJ0 whole entry): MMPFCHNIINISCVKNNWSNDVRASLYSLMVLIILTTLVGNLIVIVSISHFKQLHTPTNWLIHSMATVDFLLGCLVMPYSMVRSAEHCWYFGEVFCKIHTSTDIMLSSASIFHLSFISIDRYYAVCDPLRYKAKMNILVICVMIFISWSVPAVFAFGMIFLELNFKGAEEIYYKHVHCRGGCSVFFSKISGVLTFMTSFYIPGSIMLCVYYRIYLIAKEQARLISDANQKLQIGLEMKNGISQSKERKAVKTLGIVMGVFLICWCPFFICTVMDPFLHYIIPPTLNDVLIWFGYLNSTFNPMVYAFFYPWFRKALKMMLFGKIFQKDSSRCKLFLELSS
# [11] = cells; format: functional, cell-based
# [12] = target: T6, Trace amine-associated receptor 1; experiment: Fluorescence-based cell-based high throughput dose response assay to identify agonists of the human trace amine associated receptor 1 (TAAR1).; format: functional
# [13] = cells; format: functional, cell-based; remark: listed apart in the source
# [14] = system: Streptococcus; experiment: Group A Streptococcus viability loss, dose response, counter-screen for streptokinase expression inhibitor project, luminescence, BacTiterGlo (AID 1915); format: functional, organism-based;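 also: potency for reduction of bacterial viability or growth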
# [15] = target: Histone-lysine N-methyltransferase NSD2 (Homo sapiens, UniProt O96028); format: biochemical
# Histone-lysine N-methyltransferase NSD2, sequence (O96028 whole entry): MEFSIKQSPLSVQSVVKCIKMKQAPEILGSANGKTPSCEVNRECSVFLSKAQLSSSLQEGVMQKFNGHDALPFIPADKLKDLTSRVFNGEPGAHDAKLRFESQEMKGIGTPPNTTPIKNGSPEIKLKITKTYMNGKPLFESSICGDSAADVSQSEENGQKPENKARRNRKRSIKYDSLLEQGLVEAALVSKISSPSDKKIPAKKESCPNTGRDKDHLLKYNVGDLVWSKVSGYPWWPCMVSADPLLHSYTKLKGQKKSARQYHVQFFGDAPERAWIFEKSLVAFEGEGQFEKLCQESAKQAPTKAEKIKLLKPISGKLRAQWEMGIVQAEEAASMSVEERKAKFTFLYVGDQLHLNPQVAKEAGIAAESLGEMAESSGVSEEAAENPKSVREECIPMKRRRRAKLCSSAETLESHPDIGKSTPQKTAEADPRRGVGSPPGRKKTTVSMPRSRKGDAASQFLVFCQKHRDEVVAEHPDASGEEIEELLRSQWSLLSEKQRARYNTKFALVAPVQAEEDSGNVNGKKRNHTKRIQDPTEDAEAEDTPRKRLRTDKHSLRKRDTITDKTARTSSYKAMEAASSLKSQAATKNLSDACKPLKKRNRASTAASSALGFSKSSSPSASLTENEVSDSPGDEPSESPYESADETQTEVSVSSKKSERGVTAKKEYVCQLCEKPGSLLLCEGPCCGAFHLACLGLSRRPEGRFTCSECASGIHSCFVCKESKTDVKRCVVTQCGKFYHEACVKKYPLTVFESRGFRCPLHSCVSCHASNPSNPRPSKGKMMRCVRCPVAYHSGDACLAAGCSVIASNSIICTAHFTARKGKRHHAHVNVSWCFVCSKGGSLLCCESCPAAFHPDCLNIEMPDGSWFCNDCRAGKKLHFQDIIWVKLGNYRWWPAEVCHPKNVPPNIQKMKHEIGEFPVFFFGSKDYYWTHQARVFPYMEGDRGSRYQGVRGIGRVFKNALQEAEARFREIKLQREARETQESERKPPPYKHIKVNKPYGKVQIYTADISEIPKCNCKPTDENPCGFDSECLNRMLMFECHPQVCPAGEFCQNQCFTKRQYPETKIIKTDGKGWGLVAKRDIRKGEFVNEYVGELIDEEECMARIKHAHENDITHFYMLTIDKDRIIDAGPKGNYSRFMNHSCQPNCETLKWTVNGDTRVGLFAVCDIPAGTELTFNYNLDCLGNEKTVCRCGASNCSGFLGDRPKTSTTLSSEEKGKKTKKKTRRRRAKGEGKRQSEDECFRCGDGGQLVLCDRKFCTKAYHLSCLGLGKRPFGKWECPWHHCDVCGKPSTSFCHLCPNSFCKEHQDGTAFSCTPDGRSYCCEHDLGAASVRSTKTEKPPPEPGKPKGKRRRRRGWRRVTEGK
# [16] = MC4R antagonists, dose response, counter-screen for LGR2 antagonist project, cell-based, plate reader, cherry pick (AID 743444); format: functional;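 also: transfected HEK 293 cells stimulated with alpha-MSH peptide; potency of inhibitors of the alpha-MSH evoked signal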
# [17] = LGR2 antagonists, dose response, cell-based, HEK293, CRE-luciferase reporter, cherry pick, set 2 (AID 743343); format: functional;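 also: transfected cells were stimulated with diluted bursicon conditioned medium after compound addition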
# [18] = HepG2 cell cytotoxicity, dose response, cytotoxicity control, plate reader, cherry-pick, antagonist series (AID 743416); format: functional, cell-based
# [19] = HEK293 cell cytotoxicity, dose response, cytotoxicity control, plate reader, cherry-picked samples (AID 743446); format: functional, cell-based
# [20] = target: Galanin receptor type 3 (Homo sapiens, UniProt O60755); experiment: Fluorescence-based cell-based primary high throughput dose response assay to identify antagonists of the Galanin Receptor 3 (GalR3).; format: functional
# Galanin receptor type 3, sequence (O60755 whole entry): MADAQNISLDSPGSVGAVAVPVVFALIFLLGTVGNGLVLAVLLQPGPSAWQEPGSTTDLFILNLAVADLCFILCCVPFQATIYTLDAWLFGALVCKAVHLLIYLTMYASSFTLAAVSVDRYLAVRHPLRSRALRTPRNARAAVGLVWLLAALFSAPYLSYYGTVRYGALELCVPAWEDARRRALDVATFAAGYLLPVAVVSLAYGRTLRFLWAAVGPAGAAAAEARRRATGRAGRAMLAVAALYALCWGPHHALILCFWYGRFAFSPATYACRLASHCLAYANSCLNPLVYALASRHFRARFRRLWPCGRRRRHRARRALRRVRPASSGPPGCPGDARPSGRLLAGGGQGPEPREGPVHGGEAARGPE
# [21] = cells; format: functional, cell-based; conditions: HEK-CNG
compound,measurement,setting,value
Fc1cccc(F)c1-c1nc(-c2ccc(Cl)cc2)no1,IC50,[1],5.78 µM (active)
same,IC50,[2],25.2 µM (active)
same,EC50,[3],> 91.2 µM (inactive)
same,IC50,[4],3.99 µM (active)
same,IC50,[5],21.8 µM (active)
same,EC50,[6],> 91.2 µM (inactive)
Cc1cc(Cl)c2oc(C(=O)N(C)CCCCN3CCOCC3)c(C)c2c1,AC50,[7],30.2 µM (active)
CCN(CCn1cccn1)C(=O)CC1C(=O)NCCN1CCc1ccccc1 (stereo not drawn),EC50,[8],> 150 µM (not active)
same,EC50,[9],> 150 µM (not active)
same,IC50,[10],2.2 µM (active)
same,EC50,[11],> 29.9 µM (inactive)
same,EC50,[12],1.31 µM (active)
same,IC50,[13],> 29.9 µM (inactive)
same,EC50,[14],> 150 µM (not active)
OCC1OC(n2cnc3c(SCc4ccccc4)ncnc32)C(O)C1O (stereo not drawn),EC50,[3],> 91.3 µM (inactive)
same,EC50,[6],> 91.3 µM (inactive)
CCCN(CCC)CCCNC(=O)c1ccc(CS(=O)(=O)c2c(Cl)cccc2Cl)o1,AC50,[15],> 20 µM (inactive)
CC(C)c1ccc(Nc2ncc3c(n2)CCN(C(=O)Nc2ccc(F)c(Cl)c2)C3)cc1,AC50,[7],21 µM (active)
O=C(Nc1nc2ccccc2s1)c1ccc2sc([C@H]3C[C@H](O)[C@@H](CO)O3)nc2c1,AC50,[16],18.5 µM (active)
same,AC50,[17],18.2 µM (active)
same,AC50,[18],> 52 µM (inactive)
same,AC50,[19],> 52 µM (inactive)
Clc1cccc(CN2CCN(c3ncc(Cc4ccccc4)cn3)CC2)c1Cl,IC50,[20],> 369 nM (active)
same,EC50,[21],> 29.9 µM (inactive)
CC(Cc1ccccc1)NC=O (stereo not drawn) [FORMETOREX],IC50,[10],2.27 µM (active)
same,EC50,[11],> 29.9 µM (inactive)
same,EC50,[12],0.576 µM (active)
same,IC50,[13],> 29.9 µM (inactive)
